# Measured values as given in publication PMC5841289, “Natural polyphenols as sirtuin 6 modulators” (Scientific Reports, 2018).
# Biological target: T1, GST-tagged SIRT6 (Homo sapiens, UniProt Q8N6T7)
# T1 construct: made in house; host or cells: E. coli BL21(DE3)-pRARE
# Assay: HPLC-based SIRT6 deacetylation assay with H3K9Ac peptide;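 further: recombinant SIRT6 incubated 30 min at 37 °C with 500 µM NAD+ and H3K9Ac peptide, deacetylated H3K9 quantified by reversed-phase HPLC-MRM peak area versus DMSO control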
# Assay type: biochemical
# Conditions: not given
# T1 sequence (Q8N6T7 whole entry): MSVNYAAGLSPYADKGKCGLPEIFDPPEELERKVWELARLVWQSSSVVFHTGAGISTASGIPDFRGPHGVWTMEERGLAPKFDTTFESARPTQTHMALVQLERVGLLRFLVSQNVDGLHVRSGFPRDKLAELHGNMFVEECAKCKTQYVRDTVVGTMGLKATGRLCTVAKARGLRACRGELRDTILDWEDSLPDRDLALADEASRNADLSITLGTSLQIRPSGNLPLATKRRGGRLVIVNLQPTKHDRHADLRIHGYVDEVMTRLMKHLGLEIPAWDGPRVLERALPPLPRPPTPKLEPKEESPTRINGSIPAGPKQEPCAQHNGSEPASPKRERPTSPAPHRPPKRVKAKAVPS
"SIRT6 activation, in words","SIRT6 inhibition, in words",Compound
increased slightly SIRT6 activation,,"O=C(O)c1cc(O)c(O)c(O)c1 [Compound 22, Gallic Acid]"
,inactive,"COc1cc(/C=C/C(=O)O)cc(OC)c1O [Compound 27, Sinapic Acid]"
,inactive,"O=C(O)/C=C/c1ccc(O)c(O)c1 [Compound 25, Caffeic Acid]"
,inactive,"COc1cc(/C=C/C(=O)O)ccc1O [Compound 26, trans-Ferulic acid]"
,weak SIRT6 inhibitors,"O=c1c(-c2ccc(O)cc2)coc2cc(O)cc(O)c12 [Compound 19, Genistein]"
,inactive,"O=C(O)C=Cc1ccc(O)cc1 [Compound 24, p-Coumaric acid]"

# Same assay, conditions: 10 µM compound, mean ± SD, n=3
row,inhibition at 10 µM,Compound
1,25 ± 0.8%,"Oc1cc(O)c2c(c1)O[C@@H](c1ccc(O)c(O)c1)[C@H](O)C2 [Compound 2, (−)-Catechin]"
2,62 ± 0.7%,"O=C(O[C@@H]1Cc2c(O)cc(O)cc2O[C@H]1c1ccc(O)c(O)c1)c1cc(O)c(O)c(O)c1 [Compound 4, (−)-Catechin gallate]"
3,15 ± 0.9%,"O=C(O[C@@H]1Cc2c(O)cc(O)cc2O[C@@H]1c1ccc(O)c(O)c1)c1cc(O)c(O)c(O)c1 [Compound 8, (−)-Epicatechin gallate]"
4,17 ± 1.6%,"Oc1cc(O)c2c(c1)O[C@H](c1ccc(O)c(O)c1)[C@@H](O)C2 [Compound 1, (+)-Catechin]"
5,79 ± 0.5%,"O=C(O[C@@H]1Cc2c(O)cc(O)cc2O[C@H]1c1cc(O)c(O)c(O)c1)c1cc(O)c(O)c(O)c1 [Compound 5, (−)-Gallocatechin gallate]"
6,1.8 ± 0.3%,"O=c1c(-c2ccc(O)cc2)coc2cc(O)cc(O)c12 [Compound 19, Genistein]"

# Same assay, conditions: 100 µM compound, 40 µM H3K9Ac, mean ± SD, n=3; fold per Fig. 2C legend
row,Activation 100 µM,Compound
1,1.4 ± 0.04 fold,"O=C(O)c1cc(O)c(O)c(O)c1 [Compound 22, Gallic Acid]"
2,0.6 ± 0.2 fold,"COc1cc(/C=C/C(=O)O)cc(OC)c1O [Compound 27, Sinapic Acid]"
3,1.0 ± 0.01 fold,"O=C(O)/C=C/c1ccc(O)c(O)c1 [Compound 25, Caffeic Acid]"
4,0.9 ± 0.6 fold,"COc1cc(/C=C/C(=O)O)ccc1O [Compound 26, trans-Ferulic acid]"
5,0.7 ± 0.2 fold,"O=c1c(-c2ccc(O)cc2)coc2cc(O)cc(O)c12 [Compound 19, Genistein]"
6,0.6 ± 0.1 fold,"O=C(O)C=Cc1ccc(O)cc1 [Compound 24, p-Coumaric acid]"

# Further lines, the compound ahead of its results:
row,Compound,Activation 100 µM
1,"Oc1cc(O)c2c(c1)O[C@@H](c1ccc(O)c(O)c1)[C@H](O)C2 [Compound 2, (−)-Catechin]",0.4 ± 0.04 fold
2,"O=C(O[C@@H]1Cc2c(O)cc(O)cc2O[C@H]1c1ccc(O)c(O)c1)c1cc(O)c(O)c(O)c1 [Compound 4, (−)-Catechin gallate]",0.1 ± 0.03 fold
3,"O=C(O[C@@H]1Cc2c(O)cc(O)cc2O[C@@H]1c1ccc(O)c(O)c1)c1cc(O)c(O)c(O)c1 [Compound 8, (−)-Epicatechin gallate]",0.1 ± 0.01 fold
4,"Oc1cc(O)c2c(c1)O[C@H](c1ccc(O)c(O)c1)[C@@H](O)C2 [Compound 1, (+)-Catechin]",0.8 ± 0.02 fold
5,"O=C(O[C@@H]1Cc2c(O)cc(O)cc2O[C@H]1c1cc(O)c(O)c(O)c1)c1cc(O)c(O)c(O)c1 [Compound 5, (−)-Gallocatechin gallate]",0.01 ± 0.01 fold

# Same assay, conditions: 100 µM compound, mean ± SD, n=3
inhibition at 100 µM,Inhibition % 100 µM,Compound
14 ± 1.2%,,"O=C(O)c1cc(O)c(O)c(O)c1 [Compound 22, Gallic Acid]"
,8.0 ± 0.9%,"COc1cc(/C=C/C(=O)O)cc(OC)c1O [Compound 27, Sinapic Acid]"
-5.9 ± 0.2%,,"O=C(O)/C=C/c1ccc(O)c(O)c1 [Compound 25, Caffeic Acid]"
,-8.6 ± 0.3%,"COc1cc(/C=C/C(=O)O)ccc1O [Compound 26, trans-Ferulic acid]"
9.6 ± 1.4%,,"O=c1c(-c2ccc(O)cc2)coc2cc(O)cc(O)c12 [Compound 19, Genistein]"
8.5 ± 1.2%,,"O=C(O)C=Cc1ccc(O)cc1 [Compound 24, p-Coumaric acid]"

# The next lines start with the compound.
Compound,inhibition at 100 µM,Inhibition % 100 µM
"Oc1cc(O)c2c(c1)O[C@H](c1ccc(O)c(O)c1)[C@H](O)C2 [Compound 6, (−)-Epicatechin]",10 ± 0.1%,
"Oc1cc(O)c2c(c1)O[C@@H](c1ccc(O)c(O)c1)[C@H](O)C2 [Compound 2, (−)-Catechin]",54%,
"O=C(O[C@@H]1Cc2c(O)cc(O)cc2O[C@@H]1c1ccc(O)c(O)c1)c1cc(O)c(O)c(O)c1 [Compound 8, (−)-Epicatechin gallate]",60 ± 3.6%,
"O=c1c(O)c(-c2cc(O)c(O)c(O)c2)oc2cc(O)cc(O)c12 [Compound 16, Myricetin]",0%,
"Oc1cc(O)c2c(c1)O[C@H](c1ccc(O)c(O)c1)[C@@H](O)C2 [Compound 1, (+)-Catechin]",26%,
